Key:
SSADH null mice = experiment: Eight-hour NS2 treatment (metabolite) study in wild type and SSADH null mice; format: in vivo
Description: Mice were 22-23 days old on the day of treatment, and groups (n=3) were balanced for age and gender. […] Future studies in this model will encompass a dose-finding paradigm to ensure adequate target exposure; dose earlier in life; and increase group sizes.
The design of the study was as follows: • Treatment groups were balanced for date of birth, gender, and weight. • SSADH null mice were generated by crossing mice heterozygous for SSADH deficiency. Expected number of null progeny is 1 in 4. Seven SSADH null mice were generated from this breeding, of which three were assigned to group 3 and four were assigned to group 4.
• On the day of dosing, NS2 and vehicle were brought to room temperature. […] This working solution was prepared at room temperature, using aseptic technique in the animal dosing suite, and was used within one hour of preparation. • Dosing volume was ˜0.4 μL/g body weight for both mutant and wild-type subjects (note: the average body weight for the SSADH null mice is ˜4.9±0.9 g, and that of age-matched wild-type littermate is 10.2±0.9 g). DMSO total dose is weight normalized. • Leftover working solutions were discarded.
Organs were snap frozen in liquid nitrogen for biochemical analysis and stored at −80° C. • A terminal cardiac blood sample was obtained in a standard microtainer for serum collection. Serum was prepared by centrifugation for 10 minutes at […] (2500×g) and stored at −80° C. until analyses. […]
Plasma and tissue homogenates were shipped to the laboratory of Professor Gajja Salomons (VU Medical Center, Amsterdam, the Netherlands) on May 11, 2015. SSA, GHB and D2HG levels were assayed in the Salomons laboratory using the following published methods: 1) “Stable isotope dilution analysis of 4-hydroxybutyric acid: an accurate method for quantification in physiological fluids and the prenatal diagnosis of 4-hydroxybutyric aciduria,” Gibson et al., 1990, Biomed Environ Mass Spectrom. […]

JNK = experiment: Western Blot of MAPK signaling pathways in cardiac fibroblasts; format: cell-based, neonatal rats; settings: NS2 treatment at any level; single blot
Protocol: Thirty hearts from neonatal rats were minced and digested (Neonatal Cardiomyocyte Isolation System, LK003303, Worthington). After tissue digestion and cell dissociation, cell suspensions were plated into 35 mm dishes or onto coverslips in wells of 24-well plates. Serum-free DMEM was added to the cell suspensions and the cells allowed to adhere for 2 hrs. After two hours, the cell suspension was removed and the adherent cells were fed with DMEM containing 10% fetal bovine serum (FBS). Cells were maintained in DMEM+10% FBS for 24 hours before treatments. Treatment duration was 24 hours.
Cell samples were divided in to 2 groups, stimulated with H2O2 or not stimulated with H2O2. […] The cells that were treated with H2O2 contained a final concentration of 0.001% in the wells. Drug was dissolved in 9.5% Captisol®, to a stock concentration of 5 mg/ml. […] Cells were treated for 24 hours then either fixed for immunostaining or collected as lysates for Western Blot analysis.
Whole cell lysates were used for Western blotting; nuclear and cytosolic fractions were not prepared. DMEM from cells plated in 35 mm plates was removed, the cells rinsed quickly in PBS, then incubated in 500 ul cold RIPA buffer for 20-30 minutes at 4° C. under gentle rocking. Following RIPA incubation, cells were scraped from the dish using cell scrapers and frozen at −80° C. overnight to increase cell lysing. […]

circulating cytokines [1] = experiment: LPS model of inflammation in the mouse, ELISA of circulating cytokines; format: in vivo, mice
Protocol: Male C57BI/6 mice are dosed with disclosed compounds 30 minutes before they are exposed to LPS (20 mg/kg). Two hours after the LPS exposure, blood is collected from the mice and an ELISA is conducted to determine the amount of circulating cytokines. Treatment with disclosed compounds leads to reduction in proinflammatory cytokines, such as IL-5 and IL-1β, IL-17, and TNF. Also, treatment with disclosed compounds results in elevated anti-inflammatory cytokines, such as IL-10.

circulating cytokines [2] = settings: LPS model, mouse; cited from earlier work
[3] = SSADH null mice, 8 hours after single 10 mg/kg i.p.

## CC(C)(O)c1nc2ccc(Cl)cc2cc1N [NS2, 2-(3-amino-6-chloroquinolin-2-yl)propan-2-ol]
SSADH null mice; [3]
  GHB and D-2-HG in liver: tendency for decrease
  change in levels of metabolites (GHB, SSA, D-2-HG): no statistically significant changes
SSADH null mice; mouse, in vivo, ip, 10 mg/kg
  tolerability: well-tolerated
JNK
  JNK-pJNK (Western Blot): no changes
Circulating cytokines [1]; such as IL-5, IL-1β, IL-17, TNF
  pro-inflammatory cytokines: downregulate
Circulating cytokines [1]; such as IL-10
  anti-inflammatory cytokines: upregulate
Circulating cytokines [2]
  activation of IL-1β: significantly decreased
  activation of IL-17: significantly decreased
  activation of TGF-β: significantly decreased
  levels of the anti-inflammatory cytokine Interleukin 10 (IL-10): significantly increasing

— patent publication US20180250306A1, “ALDEHYDE CONJUGATES AND USES THEREOF” (ALDEYRA THERAPEUTICS, INC., priority 2015, published 2018)
